Tested on: Coptotermes formosanus
Test: Insect repellant activity against Coptotermes formosanus assessed as repellency threshold concentration measured up to 24 hr by multiple-step triage method
Assay type: functional

C=C(C)[C@@H]1CCC2C[C@@H](O)C[C@@H](C)[C@]2(C)C1 (some centres not stated)
MEC: 50 µg/g

C=C(C)[C@@H]1CC[C@@]2(C)C=CC(=O)C=C2C1
MEC: 25 µg/g

CC(C)[C@@H]1CCC2=CC(=O)C[C@@H](C)[C@]2(C)C1 [11,12-DIHYDRONOOTKATONE]
MEC: 6.25 µg/g

C=C(C)[C@@H]1CCC2=C[C@@H](O)C[C@@H](C)[C@]2(C)C1 [BETA-NOOTKATOL]
MEC: 100 µg/g

CC1=CC(=O)C=C2C[C@H](C(C)C)CC[C@@]12C
MEC: 25 µg/g

C=C(C)[C@@H]1CC[C@@]2(C)CCC(=O)C=C2C1
MEC: 6.25 µg/g

CC(C)[C@@H]1CC[C@]2(C)C(=CC(=O)C[C@@H]2C)C1
MEC: 6.25 µg/g

CC(C)[C@@H]1CCC2CC3(C[C@@H](C)[C@]2(C)C1)OCCO3 (some centres not stated) [TETRAHYDRONOOTKATONE KETAL]
MEC: 1.56 µg/g

C=C(C)[C@@H]1CC[C@]2(C)C(=CC(=O)C[C@@H]2C)C1
MEC: 12.5 µg/g

CC(C)[C@@H]1CCC2CC(=O)C[C@@H](C)[C@]2(C)C1 (some centres not stated) [TETRAHYDRONOOTKATONE]
MEC: 1.56 µg/g

C=C(C)[C@@H]1CCC2CC3(C[C@@H](C)[C@]2(C)C1)OCCO3 (some centres not stated) [1,10-DIHYDRONOOTKATONE KETAL]
MEC: 1.56 µg/g

C=C(C)[C@@H]1CCC2CC(=O)C[C@@H](C)[C@]2(C)C1 (some centres not stated) [1,10-DIHYDRONOOTKATONE]
MEC: 1.56 µg/g

CC(C)[C@@H]1CC[C@@]2(C)C=CC(=O)C=C2C1
MEC: 25 µg/g

C=C(C)[C@@H]1CCC2=CC(=O)C[C@@H](C)[C@]2(C)C1 [NOOTKATONE]
MEC: 12.5 µg/g

C=C(C)[C@@H]1CC[C@@]2(C)C(C)=CC(=O)C=C2C1
MEC: 50 µg/g

C=C(C)[C@@H]1CC[C@]2(C)CCC(=O)C=C2C1
MEC: 12.5 µg/g

CC(C)[C@@H]1CCC2=CC(=O)C[C@H](C)[C@@]2(C)C1 [4BETA,5BETA-1,10-DIHYDRONOOTKATONE]
MEC: 3.25 µg/g

Source: ChEMBL document CHEMBL3045732, “Structural requirements for repellency: norsesquiterpenes and sesquiterpenoid derivatives of nootkatone against the Formosan subterranean termite (Isoptera: Rhinotermitidae)” (2010)
